Results from US20240182531A1, “KV1.3 Blockers” (priority 2021, published 2024).
Where a SMILES comes first, the peptide text is derived from it. Bridges are numbered along the chain shown (N, C = ends). [ ]: non-standard residue; d: D form. Nle = CCCC[C@H](N)C(=O)O

biological target: Rat whole blood (Rattus norvegicus, UniProt P15384); assay type: cell-based; conditions: IL-17A release, thapsigargin, 24 Hr, at least 2 replicates
Sequence (P15384 whole entry): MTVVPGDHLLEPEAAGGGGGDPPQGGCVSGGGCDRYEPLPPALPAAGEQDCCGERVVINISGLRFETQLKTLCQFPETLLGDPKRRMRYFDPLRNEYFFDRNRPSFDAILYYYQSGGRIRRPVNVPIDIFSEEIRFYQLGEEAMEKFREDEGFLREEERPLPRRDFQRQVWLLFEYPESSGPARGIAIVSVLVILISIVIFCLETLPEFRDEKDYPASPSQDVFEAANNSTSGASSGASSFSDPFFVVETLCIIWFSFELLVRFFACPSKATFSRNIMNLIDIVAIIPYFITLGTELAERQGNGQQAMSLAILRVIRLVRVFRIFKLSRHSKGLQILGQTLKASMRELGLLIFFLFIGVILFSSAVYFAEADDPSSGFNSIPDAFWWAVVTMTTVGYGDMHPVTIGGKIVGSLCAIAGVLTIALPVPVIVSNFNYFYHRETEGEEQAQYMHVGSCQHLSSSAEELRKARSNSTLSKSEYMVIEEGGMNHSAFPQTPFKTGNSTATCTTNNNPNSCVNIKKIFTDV

Which IC50 does the source give for CCCC[C@@H]1NC(=O)[C@@H]2CSSC[C@H](NC(=O)[C@H](CCCNC(=N)N)NC(=O)[C@H](CCCC)NC(=O)[C@H](CC(=O)O)NC(=O)[C@H](CCCC)NC(=O)[C@@H](N)Cc3ccc(O)cc3)C(=O)N[C@@H](CO)C(=O)N[C@@H](C)C(=O)N[C@@H](CO)C(=O)N[C@@H](C(C)C)C(=O)N[C@@H](CCC(=O)O)C(=O)N[C@H]3CSSC[C@H](NC(=O)[C@H](CCCCN)NC(=O)[C@H](CCCCN)NC(=O)[C@H](CC(N)=O)NC1=O)C(=O)N[C@@H](CCCCN)C(=O)N[C@H](C(=O)N[C@@H](Cc1ccc(O)cc1)C(=O)N1CCC[C@H]1C(=O)N[C@@H](CCCNC(=N)N)C(N)=O)CSSC[C@H](NC(=O)[C@H](CCCCN)NC(=O)[C@H](CCC(N)=O)NC(=O)[C@H](CCCCN)NC3=O)C(=O)N[C@@H](CC(C)C)C(=O)N[C@@H](CCCCN)C(=O)N[C@@H](C)C(=O)N[C@@H]([C@@H](C)CC)C(=O)NCC(=O)N[C@@H](CO)C(=O)N[C@@H]([C@@H](C)CC)C(=O)N[C@@H](Cc1ccccc1)C(=O)NCC(=O)N[C@@H](CCCCN)C(=O)N2 [compound 65] (H-Y[Nle]D[Nle]RCSASVECKQKCLKAIGSIFGKC[Nle]NKKCKCYPR-NH2; disulfide 6-27, 12-32, 16-34) here?
The IC50 was 1.1 nM.

Which IC50 does the source give for “H-S[Nle]D[Nle]RCSASVECVQKCLKAIGSIFGKCMNKKCKCYPR-NH2 (cysteine pairing not given here) [compound 72]” here?
The IC50 was 0.47 nM.

How did the IC50 turn out when “NMDMRCSASVECKQKCLKAIGSIFGKCMNKKCVCYPR [compound 42]” was run?
The IC50 was 2.8 nM.

“H-S[Nle]D[Nle]RCSASVECKQKCLKAIGSIFG[homo-Lys]CMNKKCKCYPR-NH2 [compound 69]” was tested. Which IC50 did it give?
The IC50 was 2.7 nM.

“H-S[Nle]D[Nle]RCSASVECKQKCLKAIGSIFGKCMNKKCKCYQ-NH2 (cysteine pairing not given here) [compound 74]” was tested. Which IC50 did it give?
The IC50 was 1.6 nM.

Which IC50 does the source give for “Ac-LRCSASVECKQKCLAAIGSIFGKC[Nle]NKKCKCYPR-OH (cysteine pairing not given here) [compound 104]” here?
The IC50 was 0.9 nM.

Which IC50 does the source give for CC[C@H](C)[C@@H]1NC(=O)[C@H](C)NC(=O)[C@H](CCCCN)NC(=O)[C@H](CC(C)C)NC(=O)[C@@H]2CSSC[C@@H](C(=O)N[C@@H](Cc3ccc(O)cc3)C(=O)N3CCC[C@H]3C(=O)N[C@@H](CCCNC(=N)N)C(N)=O)NC(=O)[C@H](CCCCN)NC(=O)[C@@H]3CSSC[C@H](NC(=O)[C@H](CCC(=O)O)NC(=O)[C@H](C(C)C)NC(=O)[C@H](CO)NC(=O)[C@H](C)NC(=O)[C@H](CO)NC(=O)[C@@H](NC(=O)[C@H](CCCNC(=N)N)NC(=O)[C@H](CCSC)NC(=O)[C@H](CC(=O)O)NC(=O)[C@H](CCSC)NC(=O)[C@@H](N)CC(N)=O)CSSC[C@H](NC(=O)[C@H](CCCCN)NC(=O)CNC(=O)[C@H](Cc4ccccc4)NC(=O)[C@H]([C@@H](C)CC)NC(=O)[C@H](CO)NC(=O)CNC1=O)C(=O)N[C@@H](CCSC)C(=O)N[C@@H](CC(N)=O)C(=O)N[C@@H](CCCCN)C(=O)N[C@@H](CCCCN)C(=O)N3)C(=O)N[C@@H](CCCCN)C(=O)N[C@@H](CC(C)C)C(=O)N[C@@H](CCCCN)C(=O)N2 [compound 36] (H-NMDMRCSASVECKLKCLKAIGSIFGKCMNKKCKCYPR-NH2; disulfide 6-27, 12-32, 16-34) here?
The IC50 was 0.75 nM.

How did the IC50 turn out when “H-S[Nle]D[Nle]RCSASVECKQKCLKAIGSIFGKCMNKKCKC[F(4-NO2)]PR-NH2 [compound 88]” was run?
The IC50 was 1.3 nM.

With CCCC[C@@H]1NC(=O)[C@@H]2CSSC[C@H](NC(=O)[C@H](CCCNC(=N)N)NC(=O)[C@H](CCCC)NC(=O)[C@H](CC(=O)O)NC(=O)[C@H](CCCC)NC(=O)[C@@H](N)Cc3c[nH]cn3)C(=O)N[C@@H](CO)C(=O)N[C@@H](C)C(=O)N[C@@H](CO)C(=O)N[C@@H](C(C)C)C(=O)N[C@@H](CCC(=O)O)C(=O)N[C@H]3CSSC[C@H](NC(=O)[C@H](CCCCN)NC(=O)[C@H](CCCCN)NC(=O)[C@H](CC(N)=O)NC1=O)C(=O)N[C@@H](CCCCN)C(=O)N[C@H](C(=O)N[C@@H](Cc1ccc(O)cc1)C(=O)N1CCC[C@H]1C(=O)N[C@@H](CCCNC(=N)N)C(N)=O)CSSC[C@H](NC(=O)[C@H](CCCCN)NC(=O)[C@H](CCC(N)=O)NC(=O)[C@H](CCCCN)NC3=O)C(=O)N[C@@H](CC(C)C)C(=O)N[C@@H](CCCCN)C(=O)N[C@@H](C)C(=O)N[C@@H]([C@@H](C)CC)C(=O)NCC(=O)N[C@@H](CO)C(=O)N[C@@H]([C@@H](C)CC)C(=O)N[C@@H](Cc1ccccc1)C(=O)NCC(=O)N[C@@H](CCCCN)C(=O)N2 [compound 64] (H-H[Nle]D[Nle]RCSASVECKQKCLKAIGSIFGKC[Nle]NKKCKCYPR-NH2; disulfide 6-27, 12-32, 16-34) as the compound, how does the IC50 read?
Its IC50 is 1.2 nM.

Which IC50 does the source give for “LRCSASVECKQKCLAAIGSIFGKCMNKKCKCYPR [compound 105]” here?
Its IC50 is 0.36 nM.

How did the IC50 turn out when “H-P[Nle]D[Nle]RCSASVECKQKCLKAIGCIFGKC[Nle]NKKCKCYPC-OH (cysteine pairing not given here) [compound 86]” was run?
The IC50 was 1.1 nM.

With “H-S[Nle]D[Nle]RCSASVECKQKCLKAIGSIFGKCMNKKCKC[F(4-CH3)]PR-NH2 [compound 89]” as the compound, how does the IC50 read?
The IC50 was 0.54 nM.

Which IC50 does the source give for “H-PIDERCSASVECKQKCLAAIGSIFGKC[Nle]NKKCKCYPR-OH (cysteine pairing not given here) [compound 94]” here?
The IC50 was 0.87 nM.

“H-P[Nle]D[Nle]RCSASVECAQKCLAAIGSIFGKCMNKKCKCYPR-OH (cysteine pairing not given here) [compound 96]” was tested. Which IC50 did it give?
The IC50 was 0.32 nM.

Which IC50 does the source give for “H-P[Nle]E[Nle]RCSASVECKQKCLLAIGSIFGKC[Nle]NKKCKCYPR-OH (cysteine pairing not given here) [compound 93]” here?
The IC50 was 0.5 nM.

For “H-S[Nle]D[Nle]RCSASVECKQKCLVAIGSIFGKCMNKKCKCYPR-NH2 (cysteine pairing not given here) [compound 77]”, which IC50 is on record?
Its IC50 is 0.39 nM.

CCCC[C@H](NC(=O)[C@@H]1CCCN1)C(=O)N[C@@H](CC(=O)O)C(=O)N[C@@H](CCCC)C(=O)N[C@@H](CCCNC(=N)N)C(=O)N[C@H]1CSSC[C@@H]2NC(=O)[C@H](CCCCN)NC(=O)CNC(=O)[C@H](Cc3ccccc3)NC(=O)[C@H]([C@@H](C)CC)NC(=O)[C@@H]3CSSC[C@@H](C(N)=O)NC(=O)[C@@H]4CCCN4C(=O)[C@H](Cc4ccc(O)cc4)NC(=O)[C@@H]4CSSC[C@H](NC(=O)[C@H](CCCCN)NC(=O)[C@H](CCC(N)=O)NC(=O)[C@H](CCCCN)NC(=O)[C@H](CSSC[C@H](NC(=O)[C@H](CCCCN)NC(=O)[C@H](CCCCN)NC(=O)[C@H](CC(N)=O)NC(=O)[C@H](CCCC)NC2=O)C(=O)N[C@@H](CCCCN)C(=O)N4)NC(=O)[C@H](CCC(=O)O)NC(=O)[C@H](C(C)C)NC(=O)[C@H](CO)NC(=O)[C@H](C)NC(=O)[C@H](CO)NC1=O)C(=O)N[C@@H](CC(C)C)C(=O)N[C@@H](CCCCN)C(=O)N[C@@H](C)C(=O)N[C@@H]([C@@H](C)CC)C(=O)NCC(=O)N3 [compound 81] (H-P[Nle]D[Nle]RCSASVECKQKCLKAIGCIFGKC[Nle]NKKCKCYPC-NH2; disulfide 6-27, 12-32, 16-34, 22-37) was tested. Which IC50 did it give?
Its IC50 is 0.81 nM.

How did the IC50 turn out when “H-LRCSASVECKQKCLKAIGSIFGKC[Nle]NKKCKCYPR-OH (cysteine pairing not given here) [compound 103]” was run?
Its IC50 is 2.1 nM.

“H-S[Nle]D[Nle]RCSASVECKQKCLKAIGSIFGKC[Nle]NKKCKCYPR-OH (cysteine pairing not given here) [compound 80]” was tested. Which IC50 did it give?
The IC50 was 0.52 nM.

“H-P[Nle]D[Nle]RCSASVECKEKCL[homo-Gln]AIGSIFGKC[Nle]NKKCKCYPR-NH2 [compound 83]” was tested. Which IC50 did it give?
The IC50 was 1.4 nM.

For “H-S[Nle]D[Nle]RCSASVECKEKCLQAIGSIFGKC[Nle]NKKCKCYPR-NH2 (cysteine pairing not given here) [compound 82]”, which IC50 is on record?
The IC50 was 0.69 nM.
